# Read-outs that look alike come from different tables or passages of the source.
# How the values were obtained:
# Assay in all cases: HotSpot kinase profiling
# Type in all cases: biochemical
# [1] = molecular target: T1, SIK2 (Homo sapiens, UniProt Q9H0K1)
# T1 construct: purchased Reaction Biology Corp
# Procedure, shortened: (§1)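 Percent inhibition, averaged when run more than once and referenced to a DMSO negative control, came from a radioactive filter-binding readout on P81 paper. Reactions of kinase with freshly made substrate and cofactors ran for 2 h at room temperature.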
# [2] = molecular target: T2, MNK2 (Homo sapiens, UniProt Q9HBH9)
# T2 construct: purchased Reaction Biology Corp
# T2 sequence (Q9HBH9 whole entry): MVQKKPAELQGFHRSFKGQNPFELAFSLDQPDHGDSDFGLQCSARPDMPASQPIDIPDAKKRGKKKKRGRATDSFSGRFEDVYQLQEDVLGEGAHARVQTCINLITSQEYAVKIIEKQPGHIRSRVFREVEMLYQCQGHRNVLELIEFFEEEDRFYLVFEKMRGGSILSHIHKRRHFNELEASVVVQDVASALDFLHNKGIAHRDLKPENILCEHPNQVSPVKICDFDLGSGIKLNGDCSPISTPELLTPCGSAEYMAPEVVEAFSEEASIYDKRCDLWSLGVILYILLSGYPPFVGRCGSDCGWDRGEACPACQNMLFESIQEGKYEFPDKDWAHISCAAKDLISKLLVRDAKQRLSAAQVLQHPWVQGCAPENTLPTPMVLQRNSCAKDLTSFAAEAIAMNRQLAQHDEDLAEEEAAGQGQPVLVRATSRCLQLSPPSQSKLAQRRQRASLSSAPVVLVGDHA
# Procedure, shortened: as §1
# [3] = molecular target: T3, MAPKAPK5/PRAK (Homo sapiens, UniProt Q8IW41)
# T3 construct: purchased Reaction Biology Corp
# T3 sequence (Q8IW41 1-473): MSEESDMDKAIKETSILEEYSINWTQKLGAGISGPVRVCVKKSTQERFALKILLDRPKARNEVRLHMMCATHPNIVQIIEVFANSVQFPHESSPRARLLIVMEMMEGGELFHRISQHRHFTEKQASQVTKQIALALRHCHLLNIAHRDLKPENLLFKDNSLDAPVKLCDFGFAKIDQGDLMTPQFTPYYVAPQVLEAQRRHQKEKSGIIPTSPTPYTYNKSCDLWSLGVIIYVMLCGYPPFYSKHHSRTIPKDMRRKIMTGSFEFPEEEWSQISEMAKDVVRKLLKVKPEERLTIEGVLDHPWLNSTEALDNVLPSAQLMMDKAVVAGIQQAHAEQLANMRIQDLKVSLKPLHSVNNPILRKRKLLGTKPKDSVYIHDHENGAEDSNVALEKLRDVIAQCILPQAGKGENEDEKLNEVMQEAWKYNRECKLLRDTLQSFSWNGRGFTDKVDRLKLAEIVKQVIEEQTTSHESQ
# Procedure, shortened: as §1
# [4] = molecular target: T4, PKN2/PRK2 (Homo sapiens, UniProt Q16513)
# T4 construct: purchased Reaction Biology Corp
# T4 sequence (Q16513 whole entry): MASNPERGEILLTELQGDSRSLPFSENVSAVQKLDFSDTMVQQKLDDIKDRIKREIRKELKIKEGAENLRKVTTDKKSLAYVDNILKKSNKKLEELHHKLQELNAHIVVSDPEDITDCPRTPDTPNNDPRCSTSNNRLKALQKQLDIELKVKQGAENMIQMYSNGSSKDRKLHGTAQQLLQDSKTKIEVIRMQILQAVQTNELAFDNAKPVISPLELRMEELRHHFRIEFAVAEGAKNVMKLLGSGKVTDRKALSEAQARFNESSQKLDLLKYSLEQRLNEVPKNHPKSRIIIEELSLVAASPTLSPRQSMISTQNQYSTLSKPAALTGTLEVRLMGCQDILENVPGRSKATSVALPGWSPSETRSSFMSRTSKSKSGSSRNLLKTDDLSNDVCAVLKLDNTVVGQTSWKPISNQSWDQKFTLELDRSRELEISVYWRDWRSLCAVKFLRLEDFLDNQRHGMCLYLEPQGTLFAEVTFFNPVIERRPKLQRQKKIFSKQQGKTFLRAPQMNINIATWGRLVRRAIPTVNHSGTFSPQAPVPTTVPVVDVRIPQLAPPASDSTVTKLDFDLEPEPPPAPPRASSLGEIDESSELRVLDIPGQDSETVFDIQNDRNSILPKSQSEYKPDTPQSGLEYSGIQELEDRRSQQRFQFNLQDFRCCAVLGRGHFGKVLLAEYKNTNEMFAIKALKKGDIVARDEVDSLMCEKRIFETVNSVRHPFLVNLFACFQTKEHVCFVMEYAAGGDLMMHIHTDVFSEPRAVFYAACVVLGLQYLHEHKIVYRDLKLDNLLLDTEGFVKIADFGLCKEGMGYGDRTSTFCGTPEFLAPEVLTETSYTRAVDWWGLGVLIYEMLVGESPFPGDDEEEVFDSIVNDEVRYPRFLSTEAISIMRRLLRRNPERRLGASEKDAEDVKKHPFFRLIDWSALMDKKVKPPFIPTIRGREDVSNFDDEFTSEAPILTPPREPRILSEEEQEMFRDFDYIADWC
# Procedure, shortened: as §1
# [5] = molecular target: T5, ERBB2/HER2 (Homo sapiens, UniProt P04626)
# T5 construct: purchased Reaction Biology Corp
# T5 sequence (P04626 23-1255): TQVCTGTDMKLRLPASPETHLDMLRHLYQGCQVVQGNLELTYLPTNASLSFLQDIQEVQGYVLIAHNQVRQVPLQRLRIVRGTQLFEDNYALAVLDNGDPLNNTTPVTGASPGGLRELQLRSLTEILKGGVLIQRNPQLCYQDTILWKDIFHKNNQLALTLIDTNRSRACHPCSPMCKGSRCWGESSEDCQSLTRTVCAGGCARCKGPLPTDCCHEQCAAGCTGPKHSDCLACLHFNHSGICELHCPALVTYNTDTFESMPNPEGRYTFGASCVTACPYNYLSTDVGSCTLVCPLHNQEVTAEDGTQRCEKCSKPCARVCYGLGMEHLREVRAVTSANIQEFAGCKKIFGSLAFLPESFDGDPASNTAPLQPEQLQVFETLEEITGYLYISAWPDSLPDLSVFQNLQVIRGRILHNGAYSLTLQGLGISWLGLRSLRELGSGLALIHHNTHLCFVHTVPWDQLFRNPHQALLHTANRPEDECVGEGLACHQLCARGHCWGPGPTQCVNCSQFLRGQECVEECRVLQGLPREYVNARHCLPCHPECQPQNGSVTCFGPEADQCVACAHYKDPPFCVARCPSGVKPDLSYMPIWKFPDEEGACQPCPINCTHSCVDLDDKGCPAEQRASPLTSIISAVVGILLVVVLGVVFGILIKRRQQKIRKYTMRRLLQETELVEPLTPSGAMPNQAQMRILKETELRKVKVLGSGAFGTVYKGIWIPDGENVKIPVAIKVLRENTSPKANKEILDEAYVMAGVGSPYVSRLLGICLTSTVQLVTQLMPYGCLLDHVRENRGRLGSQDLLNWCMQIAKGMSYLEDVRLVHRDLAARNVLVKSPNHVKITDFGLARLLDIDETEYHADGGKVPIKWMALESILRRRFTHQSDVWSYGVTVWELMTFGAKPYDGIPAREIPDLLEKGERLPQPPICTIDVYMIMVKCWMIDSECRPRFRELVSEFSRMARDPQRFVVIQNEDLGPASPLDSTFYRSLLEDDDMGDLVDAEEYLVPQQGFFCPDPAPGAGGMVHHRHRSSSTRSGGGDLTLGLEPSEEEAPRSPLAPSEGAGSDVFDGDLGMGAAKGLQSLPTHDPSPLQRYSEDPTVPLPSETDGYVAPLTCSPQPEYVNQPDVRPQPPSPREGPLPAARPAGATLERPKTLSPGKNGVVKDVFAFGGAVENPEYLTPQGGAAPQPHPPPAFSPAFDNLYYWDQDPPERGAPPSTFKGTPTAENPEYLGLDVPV
# Procedure, shortened: as §1
# [6] = molecular target: T6, PKCnu/PRKD3 (Homo sapiens, UniProt O94806)
# T6 construct: purchased Reaction Biology Corp
# T6 sequence (O94806 1-890): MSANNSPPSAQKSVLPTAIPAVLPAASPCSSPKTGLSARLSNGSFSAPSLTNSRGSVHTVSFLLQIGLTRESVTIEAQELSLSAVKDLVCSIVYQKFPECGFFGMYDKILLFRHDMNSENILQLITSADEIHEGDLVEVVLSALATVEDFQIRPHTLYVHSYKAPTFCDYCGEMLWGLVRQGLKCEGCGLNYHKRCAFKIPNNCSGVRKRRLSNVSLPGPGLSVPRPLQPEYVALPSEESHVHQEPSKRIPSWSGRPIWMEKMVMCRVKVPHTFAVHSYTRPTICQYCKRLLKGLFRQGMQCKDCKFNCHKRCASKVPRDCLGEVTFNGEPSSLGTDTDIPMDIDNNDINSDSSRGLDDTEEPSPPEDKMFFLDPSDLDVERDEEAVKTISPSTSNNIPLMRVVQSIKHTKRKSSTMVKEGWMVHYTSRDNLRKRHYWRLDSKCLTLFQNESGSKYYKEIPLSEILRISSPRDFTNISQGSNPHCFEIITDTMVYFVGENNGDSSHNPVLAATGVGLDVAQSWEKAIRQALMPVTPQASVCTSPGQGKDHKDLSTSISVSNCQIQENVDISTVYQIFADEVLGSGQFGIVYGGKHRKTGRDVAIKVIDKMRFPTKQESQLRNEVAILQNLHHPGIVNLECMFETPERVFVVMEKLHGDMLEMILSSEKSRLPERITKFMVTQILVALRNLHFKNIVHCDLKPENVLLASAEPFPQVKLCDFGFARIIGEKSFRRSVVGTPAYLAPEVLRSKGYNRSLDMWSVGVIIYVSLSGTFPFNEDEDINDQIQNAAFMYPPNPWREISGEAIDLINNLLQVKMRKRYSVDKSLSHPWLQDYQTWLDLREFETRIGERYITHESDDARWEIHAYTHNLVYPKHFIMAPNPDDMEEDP
# Procedure, shortened: as §1
# [7] = read-out: % Enzyme Activity (relative to DMSO controls) Run 1
# [8] = read-out: % Enzyme Activity (relative to DMSO controls) Run 2
# T1 sequence (Q9H0K1 whole entry): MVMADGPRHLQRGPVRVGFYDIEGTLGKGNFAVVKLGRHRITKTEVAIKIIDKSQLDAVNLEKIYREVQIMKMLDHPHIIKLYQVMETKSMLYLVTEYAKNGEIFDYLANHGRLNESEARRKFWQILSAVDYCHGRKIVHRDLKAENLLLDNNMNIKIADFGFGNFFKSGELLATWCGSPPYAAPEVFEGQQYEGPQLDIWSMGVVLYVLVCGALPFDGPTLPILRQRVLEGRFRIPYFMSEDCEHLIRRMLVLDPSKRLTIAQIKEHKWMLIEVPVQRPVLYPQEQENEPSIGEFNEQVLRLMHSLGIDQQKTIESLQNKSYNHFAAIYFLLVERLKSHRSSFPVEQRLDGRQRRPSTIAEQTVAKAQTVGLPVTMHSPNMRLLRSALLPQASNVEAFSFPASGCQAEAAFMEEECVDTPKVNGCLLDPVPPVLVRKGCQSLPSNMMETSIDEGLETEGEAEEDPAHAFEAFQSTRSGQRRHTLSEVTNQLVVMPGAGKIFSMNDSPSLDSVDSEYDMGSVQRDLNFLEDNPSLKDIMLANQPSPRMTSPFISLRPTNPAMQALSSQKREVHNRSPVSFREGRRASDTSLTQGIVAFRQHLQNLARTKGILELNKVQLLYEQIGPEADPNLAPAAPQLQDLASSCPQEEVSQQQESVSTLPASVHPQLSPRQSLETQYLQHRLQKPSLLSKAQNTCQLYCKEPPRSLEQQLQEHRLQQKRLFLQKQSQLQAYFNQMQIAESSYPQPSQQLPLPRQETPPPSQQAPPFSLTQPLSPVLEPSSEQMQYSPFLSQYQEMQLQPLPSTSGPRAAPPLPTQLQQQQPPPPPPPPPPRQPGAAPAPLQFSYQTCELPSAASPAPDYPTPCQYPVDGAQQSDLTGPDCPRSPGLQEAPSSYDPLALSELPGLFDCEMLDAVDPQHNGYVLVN
compound,measurement,setting,value
C=CC(=O)Nc1cccc(Nc2nc(Nc3ccc(OCCOC)c(F)c3)ncc2F)c1 [Compound 2],inhibition at 3 µM,[1],43.3%
same,remaining activity at 3 µM,[1]; [7],56.3%
same,remaining activity at 3 µM,[1]; [8],57.1%
same,inhibition at 3 µM,[2],16.9%
same,remaining activity at 3 µM,[2]; [7],83%
same,remaining activity at 3 µM,[2]; [8],83.2%
same,inhibition at 3 µM,[3],-11.6%
same,remaining activity at 3 µM,[3]; [7],110%
same,remaining activity at 3 µM,[3]; [8],113%
same,inhibition at 3 µM,[4],7.64%
same,remaining activity at 3 µM,[4]; [7],93.3%
same,remaining activity at 3 µM,[4]; [8],91.4%
same,inhibition at 3 µM,[5],61.3%
same,remaining activity at 3 µM,[5]; [7],39.8%
same,remaining activity at 3 µM,[5]; [8],37.5%
same,inhibition at 3 µM,[6],20.1%
same,remaining activity at 3 µM,[6]; [7],80.1%
same,remaining activity at 3 µM,[6]; [8],79.8%

# Reference: patent US9492471B2, “Methods of treating a disease or disorder associated with Bruton'S Tyrosine Kinase” (Celgene Avilomics Research, Inc., priority 2013, dated 2016)
